Assay results published in patent US9510570B2, “CD81 and OCLN double transgenic mouse and its construction methods” (WUHAN INSTITUTE OF VIROLOGY, CAS, priority 2013, dated 2016).

Test system: HCV
Experiment: Pharmacodynamic evaluation of antiviral drug in C/O^Tg mice by acute HCV infection (HCV RNA copies by qRT-PCR)
Format: in vivo, C/O^Tg male mice
Settings: for viral load in the peripheral blood: started 1 week after HCV injection
Procedure: Plasmid pJ399EM was transcribed in vitro (Han et al., 2009) to obtain a RNA, and then the RNA was electroporated into Huh7.5.1 cells (Pasteur Institute) for virus production during 96 hours and for collection, followed by ultrafiltration and purification to obtain HCV. The C/O^Tg double transgenic mice or the wile type mice were injected at tail-vein with HCV (TCID50=1×10^8/mL) within 1-2 minutes. The serum or liver tissue of the C/O^Tg double transgenic mice or the wile type mice were collected respectively at indicated time 0 hour to 12 months after infection. HCV RNA level in serum (genomes/mL) and liver (genomes/g) were measured by qRT-PCR. The program was performed as follows: 50° C. for 30 minutes, 95° C. for 10 minutes, followed by 50 cycles at 95° C. for 30 seconds, 58° C. for 30 seconds, and 72° C. for 30 seconds. Primers used for detection were as follows: sense (forward primer): […] (represented by SEQ ID NO. 5); anti-sense (reverse primer): […] (represented by SEQ ID NO. 6). The viral load in serum (genomes/mL) of the wild type mice after injection was: 53746900±747977 (12 hours), 25791242±8626787 (2 days), 7026±2797 (4 days), 433±73 (1 week), and then the viral copies in peripheral blood of wild type mice was undetectable after one week. The viral load in peripheral blood (genomes/mL) of the C/O^Tg double transgenic mice after injection was: 3598678±3016340 (12 hours), 1607875±1304933 (2 days), 228942±174178 (4 days), 64505±6821 (1 week), 67622±4612 (2 weeks), 33671±13347 (3 weeks), 6921±4272 (1 month), 6739±4783 (2 months), 403±95 (3 months), 534±125 (4 months), 1375±198 (6 months), 4781±2969 (10 months), 2067±277 (12 months). […] The viral copies cannot be detectable in liver of the wile type mice after injection. The viral copies in the liver (genomes/g) of the C/O^Tg double transgenic mice after injection was: 149676500±26422459.09 (12 hours), 68863260±26554660 (2 days), 30167166±14023164 (4 days), 48183923±49326087 (1 week), 5221675±782099 (2 weeks), 4723475±570250 (3 weeks), 5649760±3372903 (1 month), 3597135±2671267 (2 months), 1831199±34834 (3 months), 3055570±565440 (4 months), 10729851±3954535 (6 months), 14392085±1902774 (10 months), 15543000±124774 (12 months). […] Meanwhile, the liver tissues were used for pathological analysis (H&E stain, Masson's stain), ultrasound, CT and other non-invasive imaging analysis to assess hepatitis, liver damage (fibrosis and cirrhosis) and other typical HCV pathology caused by HCV infection. The double transgenic mice infected by HCV express mild hepatitis symptoms (most ALT<40). The ALT level of the wild type mice was (U/L): 17.8±11.08 (uninfected), 10.5 0.51 (12 hours), 7.0±1.42 (2 days), 29.5±9.19 (4 days), 6.6±3.54 (1 weeks), 28.2±8.84 (2 weeks), 17.7±13.33 (1 month), 27.9±1.69 (2 months), 26.5±0.70 (3 months), 37.4±12.90 (4 months), 27.3±6.01 (10 months), 16.5±6.29 (12 months). The ALT level of the C/O^Tg double transgenic mice was (U/L): 17.8±11.01 (uninfected), 7.8±6.72 (12 hours), 28.0±1.25 (2 days), 57.3±3.88 (4 days), 16.3±7.72 (1 week), 61.0±5.65 (2 week), 21.2±11.16 (1 month), 19.6±0.68 (2 months), 27.4±10.25 (3 months), 36.3±4.06 (4 months), 35.7±5.44 (6 months), 19.5±3.79 (10 months), 232.3±26.89 (12 months). […] The prealbumin levels of the wild type mice after injection were maintained at normal levels (20˜30 mg/L), but the prealbumin levels of the C/O^Tg double transgenic mice cannot be detectable 4 days after infection. […]

SMILES | viral copies in the liver (Telaprevir 200 mg/kg i.p. daily, 1 week after Telaprevir injection) [genomes/mg] | viral load in the peripheral blood (Ribavirin 20 mg/kg i.p. daily, treatment for 1 week) | viral load in the peripheral blood (Ribavirin 20 mg/kg i.p. daily, treatment for 4 weeks) | viral copies in the liver (Ribavirin 20 mg/kg i.p. daily, 1 week after Ribavirin injection) [genomes/mg] | viral copies in the liver (Ribavirin 20 mg/kg i.p. daily, 4 weeks after Ribavirin injection) [genomes/mg]
CCC[C@H](NC(=O)[C@@H]1[C@H]2CCC[C@H]2CN1C(=O)[C@@H](NC(=O)[C@@H](NC(=O)c1cnccn1)C1CCCCC1)C(C)(C)C)C(=O)C(=O)NC1CC1 [Telaprevir] | 273±301 |  |  |  | 
NC(=O)c1ncn([C@@H]2O[C@H](CO)[C@@H](O)[C@H]2O)n1 [Ribavirin] |  | cannot be detected | cannot be detected | 260±226 | 894±639
